Data as given in PubChem BioAssay (NCI).
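Cells were grown in 96-well plates and exposed to each compound for 48 hours at five concentrations; endpoints were interpolated linearly between bracketing concentrations, or set to the highest concentration if not reached. GI50: concentration for 50% inhibition of growth. TGI denotes the concentration required for complete inhibition of growth.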

How the values were obtained:
Assay in all cases: DTP human tumour cell line panel, 48 h
RXF 393 renal = test system: RXF 393 renal
A549 NSCLC = test system: A549 NSCLC
SK-OV-3 ovarian = test system: SK-OV-3 ovarian
SK-MEL-28 melanoma = test system: SK-MEL-28 melanoma
OVCAR-3 ovarian = test system: OVCAR-3 ovarian
MDA-MB-231 breast = test system: MDA-MB-231 breast
SK-MEL-5 melanoma = test system: SK-MEL-5 melanoma
M14 melanoma = test system: M14 melanoma
UACC-62 melanoma = test system: UACC-62 melanoma
HCC-2998 colon = test system: HCC-2998 colon

SMILES | TGI (RXF 393 renal) [µM] | TGI (A549 NSCLC) [µM] | TGI (SK-OV-3 ovarian) [µM] | TGI (SK-MEL-28 melanoma) [µM] | TGI (OVCAR-3 ovarian) [µM] | TGI (MDA-MB-231 breast) [µM] | TGI (SK-MEL-5 melanoma) [µM] | TGI (M14 melanoma) [µM] | TGI (UACC-62 melanoma) [µM] | TGI (HCC-2998 colon) [µM] | GI50 (RXF 393 renal) [µM] | GI50 (A549 NSCLC) [µM] | GI50 (SK-OV-3 ovarian) [µM] | GI50 (OVCAR-3 ovarian) [µM] | GI50 (SK-MEL-5 melanoma) [µM] | GI50 (M14 melanoma) [µM] | GI50 (UACC-62 melanoma) [µM] | GI50 (SK-MEL-28 melanoma) [µM] | GI50 (MDA-MB-231 breast) [µM] | GI50 (HCC-2998 colon) [µM]
CCN(CC)CCNC(=O)c1ccc(C)c(OCc2ccccc2)c1[N+](=O)[O-] | > 91.3 | > 100 | > 75.9 | 34.2 | > 75.8 | > 100 | 30.5 | 32.3 | 39.6 | > 69.1 |  |  |  |  |  |  |  |  |  | 
Nc1nc(N)c2cc(CNc3ccc(C(=O)NC(CC(=O)O)C(=O)O)c(Cl)c3)ccc2n1 (centres undefined) | > 500 | > 500 | > 500 | > 4.64 | > 500 | > 500 | > 500 | > 500 | > 500 | > 77.5 | > 500 | 0.05 | 74.7 | 177 | 0.05 | 0.05 | 0.05 |  |  | 
NC(=S)N/N=C/c1cc(-c2cccc(N)c2)ccn1 | 42.4 | > 51.3 | > 93.8 | > 100 | 23.2 | > 100 | 7.26 | 4.21 | > 24.5 | > 43.5 | 2.32 | 3.11 | 3.29 | 1.67 | 1.69 | 1.49 | 1.38 | 4.35 | 3.6 | 2.2
O=C(NCc1ccc(S(=O)(=O)c2cc(F)cc(F)c2)cc1)c1ccc2nccn2c1 | > 72.4 | > 100 | 60.6 | 98.1 | > 100 | > 100 | > 100 | > 100 | > 100 | > 100 | > 44.8 | 9.59 | 17.1 | 1.32 | 2.22 | < 0.0108 | > 51 | > 39.8 | 20 | 14.6
Cn1cc(-c2ccc(-c3cncc(Cl)c3N3CCC4(CCNC4=O)CC3)cc2)cn1 | > 100 | > 100 | > 100 | > 100 | > 100 | > 100 | > 100 | > 100 | > 100 | > 100 | 18.2 | 29 | 41.6 | 34.3 | 40.3 | 76 | 60.7 | 79.2 | > 100 | > 100
COc1ccc2c(c1)C(C)Cc1c(ncnc1-n1cnc3cc(C)ccc31)N2C (centres undefined) | 25.3 | 12.6 | 11.7 | 19.8 | 14.1 | 18.6 | 0.589 | 13.6 | 18 | 13.3 | 0.0305 | 0.254 | 0.0591 | 0.151 | 0.0753 | 0.067 | 0.0436 | 0.575 | 0.229 | 0.329
Cc1ccc(S(=O)(=O)NC(=O)NC2=NC(C)(C)N(c3ccc(Cl)c(Cl)c3)C(N)=N2)cc1 | > 100 | > 100 | > 100 | > 100 | > 100 | > 100 | > 100 | > 100 | > 100 | > 100 |  |  |  |  |  |  |  |  |  | 
COc1ccc(/C=C(/c2ccccc2)[N+](=O)[O-])cc1 | 2.78 | 5.12 | 6.91 | 3.19 | 2.69 | 3.09 | 3.29 | 2.85 | 3.17 | 3.22 | 1.35 | 2.13 | 2.59 | 1.36 | 1.82 | 1.42 | 1.5 | 1.57 | 1.59 | 1.75
COc1ccc2c(Oc3ccc(NC(=O)c4c(C)n(CC(C)(C)O)n(-c5ccccc5)c4=O)nc3)ccnc2c1 | 41.5 | > 100 | > 80.8 | > 100 | 70.6 | > 93.5 | > 68.1 | > 100 | 42.2 | > 100 | 3.38 | 20.3 | 6.06 | 19.5 | 11.5 | 6.29 | 6.14 | 22.3 | 8.92 | 34
CC(C)C1=C2CCC3(C)C(CCC4C5C6OCC5(CCC6(C)C)CCC43C)C2(C)CC1 (centres undefined) | 48.8 | 43.8 | > 100 | 32.8 | 51 | 37.3 | 50.2 | 41.6 | 41.3 | 33.7 |  |  |  |  |  |  |  |  |  | 
COC(=O)CCC1=C(CC(=O)OC)C(C)=N/C1=C\c1[nH]c(-c2ccc[nH]2)cc1OC | 9.56 | 13 | 28.4 | 25 | 10.2 | 11.6 | 3.23 | 16.2 | 11.5 | 15.6 | 2.15 | 3.34 | 13.3 | 2.43 | 1.44 | 4.51 | 3.09 | 12.3 | 2.37 | 3.46
CCN(CC)c1cc2oc3cc(N)cc(=N)c-3nc2cc1C | 26.9 | 18.3 | > 100 | 27 | 5.63 | > 100 | 2.79 | 4.92 | 5.94 | 81.2 | 13.1 | 3.63 | 22.2 | 1.78 | 1.42 | 2.25 | 2.06 | 5.7 | 6.04 | 10
CCCCCCCCCCN1CCC(N2CCCCC2)CC1 | 7.15 | 12.1 | 8.31 | 3.41 | 16.6 | 3.26 | 2.87 |  | 3.4 | 5.9 | 2.01 | 3.74 | 2.77 | 4.64 | 1.54 | 1.72 | 1.76 | 1.78 | 1.3 | 2.21
Cc1nn(C(=O)c2ccc(Cl)cc2)c2c1C(c1ccc(O)cc1)SC(N)=N2 (centres undefined) | > 10 | > 10 | > 10 | > 10 | > 10 | > 10 | > 10 | > 10 | > 10 | > 10 |  |  |  |  |  |  |  |  |  | 
Cn1c(=O)c2c(ncn2CC(=O)Nc2ccc(-c3ccccc3)nn2)n(C)c1=O | > 100 | > 100 | > 100 | > 100 | > 100 | > 100 | > 100 | > 100 | > 100 | > 100 | 48.3 | > 100 | > 100 | > 100 | 62.6 | 10.4 | 84.7 | > 100 | 23.1 | > 100
O=C(NO)c1ccc(CN(c2cnccn2)c2cnccn2)cc1 | 25.1 | 36.5 | 29.5 | 36.4 | 30 | 63.4 | 26.1 | 28.3 | 28.5 | 26.8 | 11.5 | 13.9 | 14.6 | 11.7 | 13.1 | 11.1 | 6.71 | 11 | 22.3 | 13.2
O=C(OCc1ccc2c(Cl)cc(Cl)c(O)c2n1)N1CCN(C(=O)c2cc3cc(F)ccc3[nH]2)CC1 | > 100 | > 100 | > 100 | > 100 | 3.7 | > 55.6 | 3.9 | > 100 | > 100 | > 94.6 | 3.03 | 7.03 | 3.6 | 0.501 | 1.11 | 0.675 | 1.28 | 87 | 1.07 | 3.95
COCOc1ccc(C2(O)Oc3cc(OCOC)ccc3C2C)c(O)c1 (centres undefined) | 31.1 | 31.9 | 31.8 | 31 | 26.2 | 25.3 | 23 | 30.4 | 25.5 | 26.6 |  |  |  |  |  |  |  |  |  | 
O=C1CSC(c2ccc(-c3nc4ccccc4s3)cc2)=N1 | > 100 | > 100 | > 100 | > 100 | 55 | > 100 | 41.2 | > 100 | 45.2 | 78.5 | 28.9 | 43.9 | 53.2 | 16 | 19.2 | 38.6 | 18 | 87.2 | 24.1 | 25.9
CC1C(c2ccc3c(c2)OCO3)c2cc3c(cc2OC1N1CCOCC1)OCO3 (centres undefined) | 51.9 | > 100 | > 100 | > 46.4 | > 93.8 | > 100 | 42.7 | 76.9 | 69.5 | 65.6 |  |  |  |  |  |  |  |  |  | 
Nc1ccccc1SC1CC(=O)N(c2ccc(Cl)c(Cl)c2)C1=O (centres undefined) | 42.8 | > 100 | 54 | > 100 | 44 | > 100 | > 100 | > 100 | > 100 | > 100 | 14.2 | 19.5 | 17.6 | 11.6 | 21.9 | 40.4 | 14 | 45.4 | 17.9 | 59.6
O=C(CSC(c1ccccc1)c1ccccc1)N/N=C/c1ccco1 | 3.32 | 5.28 | > 73 | 50.7 | 3.49 | 2.87 | 6.41 | 2.69 | 16.2 | 3.58 | 1.25 | 1.54 | 28.3 | 1.92 | 1.5 | 1.49 | 2.52 | 20.8 | 1.35 | 1.62
N#Cc1ccc(OC(=O)Nc2ccc(Cl)c(Cl)c2)cc1 | 42.2 | > 100 | 51.2 | > 100 | 9.1 | 23.3 | 19.4 | 59 | 31.7 | 26.5 | 7.3 | 3.43 | 5.98 | 3.01 | 6.03 | 4.3 | 3.06 | 5.53 | 4.42 | 4.79
CC1=CC(=O)C(C(O)(C(F)(F)F)C(F)(F)F)C(C)(C)C1 (centres undefined) | > 10 | > 10 | > 10 | > 10 | > 10 | > 10 | > 10 | > 10 | > 10 | > 10 |  |  |  |  |  |  |  |  |  | 
O=C(N/N=C/c1ccc([N+](=O)[O-])o1)c1ccc(O)cc1 | 73.8 | > 100 | > 100 | > 100 | 36.1 | > 100 | 2.88 | 11.3 | 6.93 | > 100 | 12.9 | 4.71 | 17.5 | 8.33 | 1.47 | 3.67 | 2.21 | 14.7 | 10.8 | 4.98
O=c1oc2ccc(Br)cc2c(=O)n1-c1ccc(F)cc1F | 6.34 | > 100 | 3.38 | 5.8 | 11.4 | 6.96 | 2.82 | 7.55 | 4.51 | 18.4 | 2.27 | 3.17 | 0.398 | 2.41 | 1.38 | 1.59 | 1.01 | 1.04 | 2.11 | 3.54
Cc1ccc(Nc2nnc(-c3ccc4c(c3)OCO4)o2)c(C)c1 | > 100 | > 100 | > 100 | > 100 | > 100 | > 100 | > 100 | > 100 | > 100 | > 100 |  |  |  |  |  |  |  |  |  | 
Cc1cc(C)n(-c2nnc3n2N=C(c2ccc(-c4ccccc4)cc2)CS3)n1 | 6.51 | > 100 | > 100 | > 100 | 5.55 | > 100 | 5.88 |  | 6.98 | > 100 | 2.08 | 3.83 | 3.79 | 2.31 | 2.46 |  | 2.49 | 3.33 | 3.22 | 5.14
CCOC(CN(C)C(=S)Nc1cccc2ccccc12)OCC | > 10 | > 10 | > 10 | > 10 | > 10 | > 10 | > 10 | > 10 | > 10 | > 10 |  |  |  |  |  |  |  |  |  | 
